Data on 34 compounds can be found in US20260200926A1, “TREM2 MODULATORS” (Muna Therapeutics ApS, priority 2022, published 2026).

The experiment has as its target T1, Human TREM2 (Homo sapiens, UniProt Q9NZC2).
T1 construct: expressed in transfected cells
Briefly: Human TREM2 activity: cellular phosphorylation of Syk (AlphaLISA SureFire Ultra p-SYK) in HEK293/DAP12+TREM2 stable cell line. Format: cell-based. As to conditions: for Emax: maximal response relative to reference agonist example 1B (remaining examples); for EC50: phospho-Syk AlphaLISA signal, HEK293/DAP12+TREM2 cells, concentration giving 50% of maximal response, read-out: EC50. In a few lines: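 HEK293 cells stably co-expressing human TREM2 and DAP12 were seeded at 10,000 cells/well and used 20–24 h later. Compounds were tested at 8 concentrations (top 100 μM, 1:6 steps, 0.5% DMSO) for 30 min at 37 °C. Syk phosphorylation at Tyr525/526 was read in lysates by AlphaLISA SureFire Ultra.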
A general note: In Alpha technology, singlet oxygen from a donor bead excites a nearby acceptor bead.

As a reminder, the Emax is the maximal effect, on the per cent scale that the assay sets. The term EC50 denotes the concentration at which the effect is half-maximal.

Where two headings read alike, the source gives them in different places.

T1 sequence (Q9NZC2 19-230): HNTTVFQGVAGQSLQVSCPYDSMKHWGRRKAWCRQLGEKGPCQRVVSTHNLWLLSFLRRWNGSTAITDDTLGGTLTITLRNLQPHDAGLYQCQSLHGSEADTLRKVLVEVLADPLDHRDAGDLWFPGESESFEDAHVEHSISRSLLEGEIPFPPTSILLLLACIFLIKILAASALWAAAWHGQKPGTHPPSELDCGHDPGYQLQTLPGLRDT
T1 sequence (O43914 22-113 partner): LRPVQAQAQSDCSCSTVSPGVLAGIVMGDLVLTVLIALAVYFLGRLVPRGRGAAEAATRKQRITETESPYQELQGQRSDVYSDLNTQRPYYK

`Cc1nc2c(-c3cc(F)c(F)cc3F)nc(N3CCO[C@@H](c4cnn(C)c4)C3)nc2c(=O)n1C` (single isomer, unassigned) [Example 27B]: the EC50 was in the range of 10 to 100 nM. Besides, the Emax (HEK293, read-out: Emax) was in the range of 75 to 110%.
For the compound `Cc1nc2c(-c3ccc(Cl)cc3F)nc(N3C[C@@H](c4cnn(C)n4)OC(C)(C)C3)cc2c(=O)n1C` (single isomer, unassigned) [Example 147A], the EC50 lay within 10 to 100 nM. Under “HEK293, read-out: Emax”, the Emax is less than 75%.
For `Cc1nc2c(-c3ccc(Cl)cc3F)nc(N3CCO[C@H](c4cnn(C)c4)C3)cc2c(=O)n1C` (single isomer, unassigned) [Example 125B] the same measures were 10 to 100 nM and less than 75%.
For `Cc1cc2c(-c3ccc(Cl)cc3F)nc(N3CCOC(c4cnn(C)c4)C3)nc2c(=O)n1C` (centres unmarked) [Example 114, 4-(4-chloro-2-fluorophenyl)-6,7-dimethyl-2-(2-(1-methyl-1H-pyrazol-4-yl)morpholino)pyrido[3,4-d]pyrimidin-8 (7H)-one] the same measures were 1 to 10 nM and 75 to 110%.
Take `Cc1cc(C2CN(c3nc(-c4ccc(Cl)cc4F)c4nc(C)n(C)c(=O)c4n3)CCO2)ccn1` (centres unmarked) [Example 3, 8-(4-chloro-2-fluorophenyl)-2,3-dimethyl-6-(2-(2-methylpyridin-4-yl)morpholino)pyrimido[5,4-d]pyrimidin-4 (3H)-one]: the EC50 was 1 to 10 nM. In addition, the Emax (HEK293, read-out: Emax) lay within 75 to 110%.
The corresponding values for `Cc1nc2c(-c3ccc(Cl)cc3F)nc(N3C[C@@H](c4cnn(C)c4)OC4(CC4)C3)nc2c(=O)n1C` (single isomer, unassigned) [Example 108A] are 1 to 10 nM and 75 to 110%.
For `Cc1nc2c(-c3ccc(Cl)cc3F)nc(N3CCOC(c4cc[nH]n4)C3)nc2c(=O)n1C` (centres unmarked) [Example 47, 6-(2-(1H-pyrazol-3-yl)morpholino)-8-(4-chloro-2-fluorophenyl)-2,3-dimethylpyrimido[5,4-d]pyrimidin-4(3H)-one] the same measures were 100 to 1000 nM and less than 75%.
For `Cc1nc2c(-c3ccc(F)cc3F)nc(N3CCOC(c4cnn(C)c4)C3)nc2c(=O)n1C` (centres unmarked) [Example 5, 8-(2,4-difluorophenyl)-2,3-dimethyl-6-(2-(1-methyl-1H-pyrazol-4-yl)morpholino)pyrimido[5,4-d]pyrimidin-4(3H)-one] the same measures were 10 to 100 nM and less than 75%.
As for `Cc1cc([C@@H]2CN(c3cc4c(=O)n(C)c(C)nc4c(-c4ccc(Cl)cc4F)n3)CCO2)ccn1` (single isomer, unassigned) [Example 135A], the EC50 is 1 to 10 nM. Moreover, the Emax (HEK293, read-out: Emax) was in the range of 75 to 110%.
Consider `Cc1nc2c(-c3ccc(C(F)(F)F)cc3F)nc(N3C[C@H](c4cnn(C)c4)OC4(CC4)C3)cc2c(=O)n1C` (single isomer, unassigned) [Example 145B], for which the EC50 is 10 to 100 nM. Moreover, the Emax (HEK293, read-out: Emax) is less than 75%.
Turning to `Cc1nc2c(C3CCC(C)CC3)nc(N3CCOC(c4cnn(C)c4)C3)nc2c(=O)n1C` (single isomer, unassigned) [Example 71A], the EC50 lay within 10 to 100 nM. Moreover, under “HEK293, read-out: Emax”, the Emax was 75 to 110%.
Regarding `Cn1c(C(F)(F)F)nc2c(-c3ccc(F)cc3F)nc([C@H]3CCO[C@@H](c4cnn(C5CC5)c4)C3)cc2c1=O` (single isomer, unassigned) [Example 197B], the EC50 was 1 to 10 nM. For the same compound, under “HEK293, read-out: Emax”, the Emax was less than 75%.
Take `Cc1nc2c(-c3ccc(Cl)cc3F)nc(N3C[C@H](c4cnn(C)c4)OC(F)(F)C3)nc2c(=O)n1C` (single isomer, unassigned) [Example 149B]: the EC50 was in the range of 10 to 100 nM. Further, the Emax (HEK293, read-out: Emax) is less than 75%.
The corresponding values for `Cc1cc([C@H]2CN(c3cc4c(=O)n(C)c(C)nc4c(-c4ccc(C(F)(F)F)nc4)n3)CC(C)(C)O2)ccn1` (single isomer, unassigned) [Example 161B] are 1 to 10 nM and 75 to 110%.
For `Cc1nc2c(-c3ccc(C(F)(F)F)cc3F)nc(N3C[C@@H](c4cnn(C)c4)OC4(CCC4)C3)cc2c(=O)n1C` (single isomer, unassigned) [Example 143A] the same measures were 1 to 10 nM and 75 to 110%.
Consider `Cc1nc2c(-c3ccc(C(F)(F)F)cc3F)nc(N3CCO[C@@H](c4cnn(C5CC5)c4)C3)nc2c(=O)n1C` (single isomer, unassigned) [Example 20B], for which the EC50 lay within 1 to 10 nM. Besides, the Emax (HEK293, read-out: Emax) was in the range of 75 to 110%.
The corresponding values for `Cc1nc2c(-c3ccc(Cl)cc3F)nc(N3CCO[C@H](c4cnn(C)c4)C3)nc2c(=O)[nH]1` (single isomer, unassigned) [Example 203A] are 100 to 1000 nM and less than 75%.
For `Cc1nnc(C2CN(c3nc(-c4ccc(Cl)cc4F)c4nc(C)n(C)c(=O)c4n3)CCO2)o1` (centres unmarked) [Example 43, 8-(4-chloro-2-fluorophenyl)-2,3-dimethyl-6-(2-(5-methyl-1,3,4-oxadiazol-2-yl)morpholino)pyrimido[5,4-d]pyrimidin-4(3H)-one], the concentration for a half-maximal effect (EC50) lay within 10 to 100 nM. The Emax (HEK293, read-out: Emax) is less than 75%.
Turning to `Cc1nc2c(-c3ccc(C(F)(F)F)cc3C#N)nc(N3C[C@@H](c4cnn(C5CC5)c4)O[C@@H](C)C3)cc2c(=O)n1C` (single isomer, unassigned) [Example 202A], the concentration giving a half-maximal response (EC50) is greater than 1000 nM. The Emax (HEK293, read-out: Emax) is less than 75%.
As to `Cc1nc2c(-c3ccc(C(F)(F)F)nc3)nc(N3CCO[C@@H](c4cnn(C)c4)C3)cc2c(=O)n1C` (single isomer, unassigned) [Example 127A], the EC50 was in the range of 100 to 1000 nM. For the same compound, the Emax (HEK293, read-out: Emax) is less than 75%.
For `Cc1cc([C@@H]2CN(c3cc4c(=O)n(C)c(C)nc4c(-c4cc(F)c(F)cc4F)n3)CC(C)(C)O2)ccn1` (single isomer, unassigned) [Example 160A] the same measures were 1 to 10 nM and 75 to 110%.
For `CNC(=O)C1CN(c2nc(-c3ccc(Cl)cc3F)c3nc(C)n(C)c(=O)c3n2)CCO1` (centres unmarked) [Example 49, 4-(4-(4-chloro-2-fluorophenyl)-6,7-dimethyl-8-oxo-7,8-dihydropyrimido[5,4-d]pyrimidin-2-yl)-N-methylmorpholine-2-carboxamide] the same measures were greater than 1000 nM and less than 75%.
For `Cc1cc([C@H]2CN(c3nc(-c4ccc(Cl)cc4F)c4nc(C)n(C)c(=O)c4n3)CCO2)ccn1` (single isomer, unassigned) [Example 23B] the same measures were 1 to 10 nM and 75 to 110%.
In the case of `Cc1nc2c(-c3ccc(F)cc3F)nc(N3CC(C)OC(c4cnn(C5CC5)c4)C3)nc2c(=O)n1C` (racemic) [Example 177C, 6-(2-(1-cyclopropyl-1H-pyrazol-4-yl)-6-methylmorpholino)-8-(2,4-difluorophenyl)-2,3-dimethylpyrimido[5,4-d]pyrimidin-4 (3H)-one], the EC50 was 100 to 1000 nM. For the same compound, the Emax (HEK293, read-out: Emax) was less than 75%.
Consider `Cc1nc2c(nc(N3CCO[C@@H](c4cnn(C)c4)C3)nc2[C@H]2CC[C@H](C)CC2)c(=O)n1C` (single isomer, unassigned) [Example 71B], for which the Emax entry is “+ (<75%)” and the EC50 is 10 to 100 nM.
Consider `Cc1nc2c(-c3ccc(Cl)cc3F)nc(N3CCOC4(CCc5ccccc54)C3)nc2c(=O)n1C` (centres unmarked) [Example 85, 8-(4-chloro-2-fluorophenyl)-6-(2,3-dihydrospiro[indene-1,2′-morpholin]-4′-yl)-2,3-dimethylpyrimido[5,4-d]pyrimidin-4(3H)-one], for which the EC50 was greater than 1000 nM. In addition, the Emax (HEK293, read-out: Emax) was less than 75%.
For `Cc1nc2c(-c3ccc(F)cc3F)nc(N3C[C@@H](C)O[C@@H](c4cnn(C5CC5)c4)C3)nc2c(=O)n1C` (single isomer, unassigned) [Example 177B] the same measures were 1 to 10 nM and 75 to 110%.
For `Cc1cc([C@H]2CN(c3nc(-c4ccc(C(F)(F)F)cc4F)c4nc(C)n(C)c(=O)c4n3)CCO2)ccn1` (single isomer, unassigned) [Example 21B] the same measures were less than 1 nM and 75 to 110%.
In the case of `Cc1nc2c(-c3ccc(Cl)cc3F)nc(N3CC(COc4cnn(C)c4)C3)nc2c(=O)n1C` [Example 15, 8-(4-chloro-2-fluorophenyl)-2,3-dimethyl-6-(3-(((1-methyl-1H-pyrazol-4-yl)oxy)methyl)azetidin-1-yl)pyrimido[5,4-d]pyrimidin-4 (3H)-one], the EC50 is greater than 1000 nM. The Emax (HEK293, read-out: Emax) was less than 75%.
Take `Cn1c(C(F)(F)F)nc2c(-c3cc(F)c(F)cc3F)nc([C@@H]3CCO[C@H](c4cnn(C5CC5)c4)C3)nc2c1=O` (single isomer, unassigned) [Example 186A]: the EC50 fell in the range of 1 to 10 nM. Where the note is “HEK293, read-out: Emax”, the Emax lay within 75 to 110%.
In the case of `Cc1nc2c(-c3ccc(C(F)(F)F)cc3F)nc([C@H]3CCO[C@@H](c4cnn(C)c4)C3)nc2c(=O)n1C` (single isomer, unassigned) [Example 66], the EC50 was greater than 1000 nM. Further, the Emax (HEK293, read-out: Emax) was in the range of 75 to 110%.
Turning to `Cc1nc2c(-c3ccc(Cl)cc3F)nc(N3CCOC(C(=O)N(C)C)C3)nc2c(=O)n1C` (centres unmarked) [Example 51, 4-(4-(4-chloro-2-fluorophenyl)-6,7-dimethyl-8-oxo-7,8-dihydropyrimido[5,4-d]pyrimidin-2-yl)-N,N-dimethylmorpholine-2-carboxamide], the EC50 was greater than 1000 nM. The maximal response (Emax) (HEK293, read-out: Emax) lay in the range of 75 to 110%.
With `Cc1nc2c(-c3ccc(Cl)cc3F)nc([C@@]34CCO[C@@H](c5cnn(C6CC6)c5)[C@@H]3C4)nc2c(=O)n1C` (single isomer, unassigned) [Example 116B], the 50% effective concentration (EC50) fell in the range of 100 to 1000 nM. Further, the Emax (HEK293, read-out: Emax) is less than 75%.
With `Cc1nc2c(-c3ccc(Cl)cc3F)nc(N3C[C@@H](c4cnn(C)c4)OC(C)(C)C3)cc2c(=O)n1C` (single isomer, unassigned) [Example 112A], the EC50 is 10 to 100 nM. Also, the Emax (HEK293, read-out: Emax) was in the range of 75 to 110%.
